In patent publication US7485665B2, “Medicinal composition” (Nagase Chemtex Corporation, priority 2002, dated 2009):
Counter-ions that a name gives are not always drawn.

How the values were obtained:
dopamine D2 receptor = target: T1, dopamine D2 receptor (Rattus norvegicus, UniProt P61169); experiment: Binding affinity for dopamine D2 receptor ([3H]-spiperone displacement); conditions: for IC50: Wistar rat corpus striatum receptor sample, 0.25 nM [3H]-spiperone
T1 construct: centrifugation and suspension were repeated to prepare a dopamine D2 receptor sample; from tissue; host or cells: corpus striatum of Wistar male rat (membrane homogenate)
T1 sequence (P61169 whole entry): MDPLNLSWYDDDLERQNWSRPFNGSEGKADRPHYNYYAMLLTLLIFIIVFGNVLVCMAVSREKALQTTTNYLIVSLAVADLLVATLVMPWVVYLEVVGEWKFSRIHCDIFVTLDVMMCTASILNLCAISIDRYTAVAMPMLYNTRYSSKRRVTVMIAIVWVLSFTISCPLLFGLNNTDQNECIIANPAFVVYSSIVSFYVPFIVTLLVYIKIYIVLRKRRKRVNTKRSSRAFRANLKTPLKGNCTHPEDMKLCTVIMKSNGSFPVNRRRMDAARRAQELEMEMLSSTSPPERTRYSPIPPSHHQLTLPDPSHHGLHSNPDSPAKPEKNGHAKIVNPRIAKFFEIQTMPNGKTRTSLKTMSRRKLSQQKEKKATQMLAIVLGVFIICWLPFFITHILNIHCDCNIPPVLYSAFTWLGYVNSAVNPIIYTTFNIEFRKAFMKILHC
Method: Corpus striatum extracted from a Wistar male rat was homogenized in a 50 mM Tris-HCl buffer (pH 7.7), and centrifugation and suspension were repeated to prepare a dopamine D2 receptor sample. The receptor sample was reacted with a solution containing a 0.25 nM radioactive ligand of [^3H]-spiperone and the specimen drug obtained in Example 9 at a prescribed concentration. Then, the solution was filtered by suction using a multifilter MF-12G (glass filter (provided with Whatman GF/C)), and radioactivity of the filter was measured using a scintillation counter (LS6500 Beckman), so that affinity of the specimen drug for a dopamine D2 receptor was measured. Separately, the same procedure was also performed regarding TKS159 hydrochloride, and the affinity was compared.

Sprague-Dawley male rats = experiment: 28-day repeated oral administration to rats, necropsy and pathohistological test; format: in vivo; conditions: rat, oral 300, 1000 or 2000 mg/kg once a day for 28 days
Method: Five Sprague-Dawley male rats, 4 week age, weighing each 160.3 to 169.5 g, were reared for 8 days for quarantine and training were handled as one group, and they were grouped into four groups of a control group, a 300 mg/kg administration, a 1000 mg/kg administration, and a 2000 mg/kg administration. 4-Amino-5-chloro-2-methoxy-N-[(2S,4S)-2-hydroxymethyl-4-pyrrolidinyl] benzamide monohydrochloride obtained in Example 9 was ground with a mortar, the powder was added so that the compound was contained at 300 mg, 1000 mg or 2000 mg in 10 ml of a 0.5% aqueous methylcellulose solution (manufactured by Wako Pure Chemical Industries, Ltd.; prepared using Japanese Pharmacopoeia injectable water), and the solution was stirred to prepare an administration specimen. Administration specimens for 7 days were prepared at one time, once per week, stored in a refrigerator, and used. One-time dose was defined to be 10 ml/kg, and the specimen was forcibly administered orally at 9 o'clock to 12 o'clock for 28 days once a day using a rat stomach tube. Only a 0.5% aqueous methylcellulose solution was administered at 10 ml/kg to a control group.
During training and drug administration period, a solid feed (CE-2 manufactured by CLEA Japan Inc.) and tap water were freely given.

beagle dogs [1] = experiment: 4-week repeated oral administration to beagle dogs, necropsy and pathohistological test; format: in vivo; conditions: beagle dog, oral 100 mg/kg once a day for 4 weeks
Method: Using three beagle dogs as a test animal, 4-amino-5-chloro-2-methoxy-N-[(2S,4S)-2-hydroxymethyl-4-pyrrolidinyl]benzamide monohydrochloride obtained in Example 9 was repeatedly administered orally at a dose of 100 mg/kg once a day for 4 weeks. Thereafter, the animals were sacrificed by exsanguination from carotid artery under anesthesia, and the brain, aorta, heart, lung, and liver were extracted. These organs were examined with naked eyes, fixed with a 0.1% phosphate-buffered 10% formalin solution, and stored. Each organ was embedded in paraffin, and sliced to prepare a hematoxine orange-stained sample. Pathohistological test on the sections was performed using a light microscope.

serotonin receptor 4 = target: T2, serotonin receptor 4 (Cavia porcellus, UniProt O70528); experiment: Binding affinity for serotonin receptor 4 ([3H]-GR113808 displacement); set-up: species or system guinea pig; conditions: for IC50: guinea pig corpus striatum receptor sample, 0.1 nM [3H]-GR113808
T2 construct: centrifugation and suspension were repeated to prepare a serotonin receptor 4 sample; from tissue; host or cells: corpus striatum of Hartley male guinea pig (membrane homogenate)
T2 sequence (O70528 whole entry): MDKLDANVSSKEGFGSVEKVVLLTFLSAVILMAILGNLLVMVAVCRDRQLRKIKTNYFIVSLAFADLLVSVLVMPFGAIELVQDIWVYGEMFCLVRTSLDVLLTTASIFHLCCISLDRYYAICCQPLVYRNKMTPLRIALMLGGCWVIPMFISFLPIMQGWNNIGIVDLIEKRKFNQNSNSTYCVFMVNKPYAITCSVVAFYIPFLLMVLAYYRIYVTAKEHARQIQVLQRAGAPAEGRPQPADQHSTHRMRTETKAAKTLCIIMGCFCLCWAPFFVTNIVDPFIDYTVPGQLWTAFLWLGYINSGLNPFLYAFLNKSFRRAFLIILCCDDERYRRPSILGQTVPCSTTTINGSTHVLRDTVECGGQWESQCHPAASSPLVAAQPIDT
Method: Corpus striatum extracted from a Hartley male guinea pig was homogenized in a 50 mM HEPES-NaOH buffer (pH 7.4), and centrifugation and suspension were repeated to prepare a serotonin receptor 4 sample. The receptor sample was reacted with a solution containing a 0.1 nM radioactive ligand of [^3H]-GR113808 and the specimen drug obtained in Example 9 at a prescribed concentration. Then, the solution was filtered by suction using a multifilter MF-12G (glass filter (provided with Whatman GFIC)), and radioactivity of the filter was measured using a scintillation counter (LS6500 Beckman), so that affinity of the specimen drug for a serotonin receptor 4 was measured. Separately, the same procedure was also performed regarding TKS159 hydrochloride, and the affinity was compared.

[2] = tested on: esophagus sample extracted from a rat; experiment: Relaxation reaction in rat-extracted esophagus muscularis mucosae sample contracted with carbachol; conditions: for EC50: Wistar rat esophagus muscularis mucosae, 3x10^-6 M carbachol, 1 μM methysergide, ketanserin and granisetron present
Method: Regarding the drug obtained in Example 9, a degree of action of promoting the movement of the digestive tract was measured using an esophagus sample extracted from a rat.
An esophagus in a chest cavity was extracted from a Wistar male rat, and muscularis propria sample containing longitudinal muscle and circular muscle was removed to prepare a muscularis mucosae sample having a length of about 2 cm. The sample was immersed in a nutrient solution (containing NaCl 118.5, KCl 4.7, CaCl2 1.3, MgSO4 0.6, NaHCO3 25.0, KH2PO4 1.2, and glucose 11.1 (unit mM)), and constriction of the sample and stability of the constriction were confirmed at 32°C using 3x10 ^-6M carbachol while a 95% 02/5% Co2 mixed gas was flown, each 1 μM of methysergide, ketanserin and granisetron were added, the drug obtained in Example 9 was accumulatively applied at a common ratio of 3 after 30 minutes, and a degree of relaxation was isotonically (stationary tension; about 0.5 g) measured via a transducer. Separately, the same procedure was also performed regarding TKS159 hydrochloride, and an intensity of the action was compared.

ddy male mouse = experiment: Acute toxicity in mouse, oral and intravenous administration; format: in vivo
Method: Using a ddy male mouse, the drug obtained in Example 9 and TKS159 were suspended in 0.5% methylcellulose for oral administration, and were dissolved in a physiological saline for intravenous administration. This was administered by a forced oral administration method and an intravenous administration method using a probe, and acute toxicity was observed.

beagle dogs [3] = experiment: Repeated oral administration toxicity tests of TKS159 in beagle dogs (4, 13 and 52 weeks); format: in vivo
Method: Separately, beagle dogs (female and male) were divided into 4 groups consisting of 6, 4, 4 and 6 dogs and, among them, to 3 groups were repeatedly administered orally TKS 159 at a dose of 2.5, 6.0 and 15.0 mg/kg, and to a control group was repeatedly administered orally an excipient, for 13 weeks, and observation of the general status and various tests were performed. Further, regarding a control group and a case of a part of a 15.0 mg/kg administration group, after a repeated administration period for 13 weeks, a recovery test of no administration of a drug was performed for 4 weeks, and then the same test was performed. […] Separately, beagle dogs (female and male) were divided into 4 groups containing 5, 3, 3 and 5 dogs and, among them, to 3 groups was repeatedly administered orally TKS159 at a dose of 0.25, 0.75 and 2.25 mg/kg, to a control group was repeatedly administered an excipient orally, for 52 weeks, and observation of the general status and various tests were performed. Further, regarding a control group and a case of a part of a 2.25 mg/kg administration group, after a repeated administration period for 52 weeks, a recovery test of no administration of a drug was performed for 4 weeks, and then the same test was performed.

[4] = beagle dogs, 13 weeks, 15.0 mg/kg group
[5] = beagle dogs, 52 weeks, 2.25 mg/kg group
[6] = male beagle dogs, 4 weeks, 100 mg/kg group

| affinity for a dopamine D2 receptor as compared with TKS159 hydrochloride (dopamine D2 receptor; FIG. 2) | affinity for a serotonin receptor 4 as compared with TK5159 hydrochloride (serotonin receptor 4; FIG. 1) | Structure (SMILES) | IC50 (dopamine D2 receptor) [nM] | organs observed with naked eyes (Sprague-Dawley male rats) | pathohistological test (Sprague-Dawley male rats) | pathohistological test (beagle dogs [1]) | organs examined with naked eyes (beagle dogs [1]; brain, aorta, heart, lung, liver) | IC50 (serotonin receptor 4) [nM] | relaxing action as compared with TKS159 hydrochloride ([2]; FIG. 3) | EC50 [2] [nM] | Survival (ddy male mouse; intravenous administration, 132 mg/kg) | Survival (ddy male mouse; oral administration, 1080 mg/kg) | findings in other one case (beagle dogs [3]; [4]) | findings in two cases (beagle dogs [3]; [4]) | arteritis findings (beagle dogs [3]; [5]) | malacia findings (beagle dogs [3]; [5]) | findings in death case (beagle dogs [3]; [6]) | findings in survival case (beagle dogs [3]; [6]) |
| --- | --- | --- | --- | --- | --- | --- | --- | --- | --- | --- | --- | --- | --- | --- | --- | --- | --- | --- |
| weaker | stronger | COc1cc(N)c(Cl)cc1C(=O)N[C@@H]1CN[C@H](CO)C1.Cl [Example 9, 4-amino-5-chloro-2-methoxy-N-[(2S,4S)-2-hydroxymethyl-4-pyrrolidinyl]benzamide monohydrochloride] | 34000 | Abnormality was not seen with naked eyes in any organ | encephalomalacia, arteritis and thrombus formation were not recognized | encephalomalacia, arteritis and thrombus formation were not recognized | Abnormality was not seen in any organ | 250 | stronger | 700 |  |  |  |  |  |  |  |  |
|  |  | CCN1CC(NC(=O)c2cc(Cl)c(N)cc2OC)CC1CO (stereo not drawn) [TKS159 hydrochloride] | 3800 |  |  |  |  | 450 |  | 1100 | No survival among 6 | No survival among 2 |  |  |  |  |  |  |
|  |  | CCN1C[C@@H](NC(=O)c2cc(Cl)c(N)cc2OC)C[C@H]1CO [TKS159, 4-Amino-5-chloro-2-methoxy-N-[(2S,4S)-1-ethyl-2-hydroxymethyl-4-pyrrolidinyl]benzamide] |  |  |  |  |  |  |  |  |  |  | necrosis of an artery septum and surrounding cell infiltration were recognized | arteritis was recognized | arteritis was observed in thighbone marrow and mediastinal lymph node in one case among male 5 cases | malacia was seen in piriform lobe and hippocampus in other one case | thrombus formation was recognized in a lung artery and a heart coronary artery, and slight bleeding was recognized in a cavity surrounding a blood vessel in a cerebral parenchyma | big thrombus formation was recognized in a left ventricle, and thrombus formation was recognized in a kidney arcuate artery and an interlobar artery |
